Measured values published in ChEMBL document CHEMBL1201862, “PubChem BioAssay data set” (2004).
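Cultured in 96-well plates, cells were exposed to test compound for 48 hours across five concentrations. GI50 marks 50% less growth.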 Calls of active or inactive are those of the source. No stated cut-off is given here; in the data, active = GI50 up to about 1.1 µM and inactive = higher.

Columns and labels:
Test in all cases: NCI tumour cell line growth inhibition, 48 h
[1] = test system: HOP-62
[2] = test system: SK-OV-3
[3] = test system: KM12
[4] = test system: LOX IMVI
[5] = test system: HCT-116
[6] = test system: DMS-273
[7] = test system: OVCAR-8
[8] = test system: LXFL 529
[9] = test system: NCI-H23
[10] = test system: OVCAR-5
[11] = test system: CCRF-CEM
[12] = test system: SNB-75
[13] = test system: RXF 393
[14] = test system: U-251
[15] = test system: Malme-3M
[16] = test system: SF-268
[17] = test system: SK-MEL-28
[18] = test system: HCC 2998
[19] = test system: SNB-19
[20] = test system: UO-31
[21] = test system: A549
[22] = test system: HT-29
[23] = test system: A498
[24] = test system: IGROV-1
[25] = test system: NCI-H460
[26] = test system: SK-MEL-5
[27] = test system: HOP-18
[28] = test system: NCI-H522
[29] = test system: UACC-62
[30] = test system: NCI-H226
[31] = test system: KM-20L2
[32] = test system: SR
[33] = test system: UACC-257
[34] = test system: CAKI-1
[35] = test system: EKVX
[36] = test system: SF-295
[37] = test system: SK-MEL-2
[38] = test system: SF-539
[39] = test system: HOP-92
[40] = test system: M19-MEL
[41] = test system: SNB-78
[42] = test system: DLD-1
[43] = test system: TK-10
[44] = test system: K562
[45] = test system: HCT-15
[46] = test system: M14
[47] = test system: HL-60
[48] = test system: OVCAR-3
[49] = test system: 786-0
[50] = test system: COLO 205
[51] = test system: MOLT-4
[52] = test system: ACHN
[53] = test system: XF498
[54] = test system: SN12C
[55] = test system: OVCAR-4
[56] = test system: RPMI-8226
[57] = test system: MDA-MB-435
[58] = test system: PC-3
[59] = test system: DMS-114
[60] = test system: MDA-N
[61] = test system: NCI/ADR-RES
[62] = test system: DU-145
[63] = test system: Hs-578T
[64] = test system: MDA-MB-231
[65] = test system: T47D
[66] = test system: MCF7
[67] = test system: SW-620
[68] = test system: BT-549

## C/C(=N\NC(N)=O)c1sc(-c2nc(C)c(/C(C)=N/NC(N)=O)s2)nc1C
[1]
  GI50: > 100 µM (inactive)
[2]
  GI50: > 100 µM (inactive)
[3]
  GI50: > 100 µM (inactive)
[4]
  GI50: > 100 µM (inactive)
[5]
  GI50: > 10 µM (inactive)
[6]
  GI50: 21.1 µM (inactive)
[7]
  GI50: > 100 µM (inactive)
[8]
  GI50: > 100 µM (inactive)
[9]
  GI50: > 100 µM (inactive)
[10]
  GI50: > 100 µM (inactive)
[11]
  GI50: 90.4 µM (inactive)
[12]
  GI50: > 100 µM (inactive)
[13]
  GI50: > 100 µM (inactive)
[14]
  GI50: 99.3 µM (inactive)
[15]
  GI50: > 100 µM (inactive)
[16]
  GI50: > 100 µM (inactive)
[17]
  GI50: > 100 µM (inactive)
[18]
  GI50: > 100 µM (inactive)
[19]
  GI50: > 100 µM (inactive)
[20]
  GI50: > 100 µM (inactive)
[21]
  GI50: > 100 µM (inactive)
[22]
  GI50: > 100 µM (inactive)
[23]
  GI50: > 100 µM (inactive)
[24]
  GI50: > 100 µM (inactive)
[25]
  GI50: 78.7 µM (inactive)
[26]
  GI50: > 100 µM (inactive)
[27]
  GI50: > 100 µM (inactive)
[28]
  GI50: 70.5 µM (inactive)
[29]
  GI50: > 100 µM (inactive)
[30]
  GI50: > 100 µM (inactive)
[31]
  GI50: 49.3 µM (inactive)
[32]
  GI50: 22.6 µM (inactive)
[33]
  GI50: > 100 µM (inactive)
[34]
  GI50: > 100 µM (inactive)
[35]
  GI50: 21.5 µM (inactive)
[36]
  GI50: > 100 µM (inactive)
[37]
  GI50: > 100 µM (inactive)
[38]
  GI50: > 100 µM (inactive)
[39]
  GI50: > 100 µM (inactive)
[40]
  GI50: > 100 µM (inactive)
[41]
  GI50: > 100 µM (inactive)
[42]
  GI50: 46.6 µM (inactive)
[43]
  GI50: > 100 µM (inactive)
[44]
  GI50: 53.8 µM (inactive)
[45]
  GI50: 21.9 µM
[46]
  GI50: > 100 µM (inactive)
[47]
  GI50: 40 µM (inactive)
[48]
  GI50: > 100 µM (inactive)
[49]
  GI50: > 100 µM (inactive)
[50]
  GI50: 53.6 µM (inactive)
[51]
  GI50: > 100 µM (inactive)
[52]
  GI50: > 100 µM (inactive)
[53]
  GI50: > 100 µM (inactive)
[54]
  GI50: > 100 µM (inactive)
[55]
  GI50: > 100 µM (inactive)
[56]
  GI50: > 100 µM (inactive)

## COc1cc(/C=C2\CCC/C(=C\c3ccc(O)c(OC)c3)C2=O)ccc1O [CYCLOVALONE]
[57]
  GI50: 3.13 µM (inactive)
[1]
  GI50: 2.84 µM (inactive)
[2]
  GI50: 3.73 µM (inactive)
[3]
  GI50: 2.87 µM (inactive)
[4]
  GI50: 1.67 µM (inactive)
[5]
  GI50: 2.07 µM (inactive)
[6]
  GI50: 1.51 µM (inactive)
[7]
  GI50: 1.72 µM (inactive)
[8]
  GI50: 1.85 µM (inactive)
[9]
  GI50: 6.75 µM (inactive)
[10]
  GI50: 9.66 µM (inactive)
[11]
  GI50: 0.525 µM (active)
[13]
  GI50: 2.24 µM (inactive)
[14]
  GI50: 2.08 µM (inactive)
[15]
  GI50: 2.17 µM (inactive)
[16]
  GI50: 2.39 µM (inactive)
[17]
  GI50: 3.41 µM (inactive)
[58]
  GI50: 3.66 µM (inactive)
[18]
  GI50: 2.77 µM (inactive)
[19]
  GI50: 6.15 µM (inactive)
[20]
  GI50: 2.13 µM (inactive)
[59]
  GI50: 1.77 µM (inactive)
[21]
  GI50: 2.73 µM (inactive)
[22]
  GI50: 7.6 µM (inactive)
[23]
  GI50: 3.99 µM (inactive)
[24]
  GI50: 2.77 µM (inactive)
[25]
  GI50: 2.59 µM (inactive)
[60]
  GI50: 2.42 µM (inactive)
[26]
  GI50: 2.51 µM (inactive)
[27]
  GI50: 2.74 µM (inactive)
[61]
  GI50: 2.91 µM (inactive)
[28]
  GI50: 1.57 µM (inactive)
[29]
  GI50: 1.96 µM (inactive)
[30]
  GI50: 6.17 µM (inactive)
[62]
  GI50: 3.47 µM (inactive)
[31]
  GI50: 15.2 µM (inactive)
[63]
  GI50: 4.16 µM (inactive)
[64]
  GI50: 5.96 µM (inactive)
[65]
  GI50: 3.29 µM (inactive)
[32]
  GI50: 1.28 µM (inactive)
[33]
  GI50: 5.01 µM (inactive)
[34]
  GI50: 2.81 µM (inactive)
[35]
  GI50: 6.84 µM (inactive)
[36]
  GI50: 2.92 µM (inactive)
[66]
  GI50: 4.33 µM (inactive)
[37]
  GI50: 3.56 µM (inactive)
[38]
  GI50: 2.04 µM (inactive)
[39]
  GI50: 5.2 µM (inactive)
[40]
  GI50: 1.86 µM (inactive)
[41]
  GI50: 2.75 µM (inactive)
[42]
  GI50: 1.75 µM (inactive)
[43]
  GI50: 5 µM (inactive)
[44]
  GI50: 3.22 µM (inactive)
[45]
  GI50: 2.34 µM
[67]
  GI50: 2.7 µM (inactive)
[46]
  GI50: 2.25 µM (inactive)
[47]
  GI50: 1.47 µM (inactive)
[48]
  GI50: 2.74 µM (inactive)
[49]
  GI50: 2.07 µM (inactive)
[68]
  GI50: 3.59 µM (inactive)
[50]
  GI50: 14.2 µM (inactive)
[51]
  GI50: 2.83 µM (inactive)
[52]
  GI50: 2.06 µM (inactive)
[53]
  GI50: 5.7 µM (inactive)
[54]
  GI50: 2.38 µM (inactive)
[55]
  GI50: 7.35 µM (inactive)
[56]
  GI50: 1.2 µM (inactive)
